Each block holds one compound with its values, some of them ahead of it.
Legend:
[1] = molecular target: T1, recombinant Human Phosphodiesterase B2 (PDE4B2) (Homo sapiens, UniProt Q07343); assay: Human Phosphodiesterase B2 Alpha Screen Assay; type: biochemical; conditions: Alpha Screen cAMP assay, 60 minutes incubation at room temperature, read-out: PDE4B2 pIC50 (converted)
Procedure: Human Phosphodiesterase B2 Alpha Screen Assay
The assay uses recombinant Human Phosphodiesterase B2 (PDE4B2) produced in house (PrAZL0133), stored at −20° C. The substrate uses cAMP, part of the Alpha Screen cAMP kit (Perkin Elmer, Cat#6760625M), stored at 4° C. The Alpha Screen kit also includes biotinylated cAMP, acceptor and donor beads.
The assay additions were as follows: Test compounds and controls were added to white 384-well flat-bottom plates (Greiner, Cat#781075), 0.2 μl in 100% DMSO, followed by 10 μl PDE4B2 in reaction buffer. The reaction buffer constitution was: 50 mM Tris (pH 7.5), 8.3 mM MgCl2, 1.7 mM EGTA and 0.01% (w/v) Brij®35. The enzyme and the compounds were incubated at room temperature for 15 minutes. Then 10 μl cAMP in reaction buffer was added. The assay was stopped after 60 minutes incubation at room temperature by adding 10 μl acceptor beads in detection buffer with 40 mM EDTA. The detection buffer constitution was: 5 mM Tris (pH 7.5), 0.1% (w/v) BSA and 0.1% (v/v) Tween 20. This addition followed by an addition of 10 μl donor beads in detection buffer, with biotinylated cAMP. The plates were then incubated, dark at room temperature, for 5 hours followed by measurement on a Fusion™-α analyser. pIC50 values (presented in Table 14) were determined using X1fit curve fitting using model 205.

[2] = molecular target: T1, recombinant Human Phosphodiesterase B2 (PDE4B2); assay: Human Phosphodiesterase B2 Radiometric Assay; type: biochemical; conditions: for IC50: read-out: PDE4B2 pIC50 (converted)
Procedure: Human Phosphodiesterase B2 Radiometric Assay
The assay uses recombinant Human Phosphodiesterase B2 (PDE4B2) produced in house (PrAZL0163), stored at −20° C. This assay is based on the observation that 5′AMP, the product of the reaction catalysed by PDE4, binds preferentially to yttrium silicate SPA beads (Amersham Biosciences, UK) compared to the substrate, cAMP. Compounds at the appropriate concentration were preincubated at 30 C for 30 min. with an assay buffer containing 50 mM HEPES (pH 7.5), 8.3 mM MgCl2, 1.7 mM EGTA, 0.01% (w/v) Brij®35 and 0.1 μg/mL recombinant PDE4B2. The reaction was started by the addition of [3H]cyclic AMP to give a final concentration of 8 nM, and was stopped 20 minutes after the addition of the substrate by the addition of yttrium silicate SPA beads containing 18 mM Zn SO4. Bound [3H]cyclic AMP was measured using a Topcount NXT (Packard Bioscience, UK). pIC50 values (presented in Table 15) were determined using X1fit3 curve fitting, using model 205.

[3] = recombinant human PDE4B2, [3H]cyclic AMP 8 nM, SPA radiometric assay

T1 sequence (Q07343 1-564 isoform Q07343-2): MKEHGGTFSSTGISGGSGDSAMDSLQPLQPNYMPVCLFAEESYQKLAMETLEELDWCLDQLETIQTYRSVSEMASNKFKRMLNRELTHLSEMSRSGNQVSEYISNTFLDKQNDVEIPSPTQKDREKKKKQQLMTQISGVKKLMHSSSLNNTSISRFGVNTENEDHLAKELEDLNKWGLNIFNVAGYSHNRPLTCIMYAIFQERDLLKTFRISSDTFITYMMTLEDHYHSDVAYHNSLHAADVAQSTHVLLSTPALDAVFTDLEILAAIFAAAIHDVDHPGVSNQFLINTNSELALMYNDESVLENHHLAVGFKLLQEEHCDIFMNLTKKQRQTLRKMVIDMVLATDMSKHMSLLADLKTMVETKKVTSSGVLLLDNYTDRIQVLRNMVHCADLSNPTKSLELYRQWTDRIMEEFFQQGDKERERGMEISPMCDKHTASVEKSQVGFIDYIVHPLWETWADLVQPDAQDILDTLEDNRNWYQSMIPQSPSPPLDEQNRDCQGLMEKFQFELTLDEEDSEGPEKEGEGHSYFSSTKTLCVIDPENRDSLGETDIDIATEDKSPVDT

IC50 [1]: 50.1 nM
SMILES: COC(=O)[C@H]1CC[C@H](n2c(=O)n([C@H]3CC[C@@H](NC(=O)C4CC4)CC3)c(=O)c3cc(F)cnc32)CC1 [Example 8, methyl trans-4-[3-{cis-4-[(cyclopropylcarbonyl)amino]cyclohexyl}-6-fluoro-2,4-dioxo-3,4-dihydropyrido[2,3-d]pyrimidin-1(2H)-yl]cyclohexanecarboxylate]

IC50 [2, 3]: 158 nM
SMILES: CN(C)CCCn1c(=O)n([C@H]2CC[C@@H](NC(=O)c3cn4cc(F)ccc4n3)CC2)c(=O)c2cc(F)cnc21 [Example 41, N-{cis-4-[1-[3-(dimethylamino)propyl]-6-fluoro-2,4-dioxo-1,4-dihydropyrido[2,3-d]pyrimidin-3(2H)-yl]cyclohexyl}-6-fluoroimidazo[1,2-a]pyridine-2-carboxamide]

Second part, the compound before the results:

SMILES: CN1CCC(n2c(=O)n([C@H]3CC[C@@H](NC(=O)c4cn5cc(F)ccc5n4)CC3)c(=O)c3cc(F)cnc32)CC1 [Example 40, 6-fluoro-N-{cis-4-[6-fluoro-1-(1-methylpiperidin-4-yl)-2,4-dioxo-1,4-dihydropyrido[2,3-d]pyrimidin-3(2H)-yl]cyclohexyl}imidazo[1,2-a]pyridine-2-carboxamide]
PDE4B2 % at 0.32 uM (printed in the pIC50 column) ([2]; at 0.32 uM, recombinant human PDE4B2, radiometric assay): 50% at 0.32 uM

SMILES: O=C(NC1CN2CCC1CC2)c1cccc(-n2c(=O)n([C@H]3CC[C@@H](NC(=O)c4cn5cc(F)ccc5n4)CC3)c(=O)c3cc(F)cnc32)c1 (some centres unmarked) [Example 42]
PDE4B2 pIC50 [2, 3]: 7.7

SMILES: O=C(N[C@H]1CC[C@@H](n2c(=O)c3cc(F)cnc3n(-c3cccc(OCCN4CCOCC4)c3)c2=O)CC1)c1cn2cc(F)ccc2n1 [Example 43, 6-fluoro-N-{cis-4-[6-fluoro-1-[3-(2-morpholin-4-ylethoxy)phenyl]-2,4-dioxo-1,4-dihydropyrido[2,3-d]pyrimidin-3 (2H)-yl]cyclohexyl}imidazo[1,2-a]pyridine-2-carboxamide]
IC50 [2, 3]: 1 nM
